Data published in PMC5079539 (Organic & biomolecular chemistry, 2016).
Like-named read-outs stand apart in the source and are kept apart here.

How the values were obtained:
[1] = test system: cell line ET (luc-ubi-neo/ET), Huh7 human hepatoma cell line; test: Cytotoxicity in secondary assay; settings: cellular ribosomal RNA as cytotoxicity control
HCV 1b replicon = test: Secondary HCV antiviral assay: qRT-PCR; format: cell-based
[2] = Metabolic stability assay; format: in vitro ADME, human
[3] = test system: cell line ET (luc-ubi-neo/ET), Huh7 human hepatoma cell line
[4] = Cytotoxicity in secondary assay; settings: human
in vitro = settings: human
[5] = cited from earlier work
[6] = qRT-PCR (TaqMan) of HCV RNA, single assay, quadruplicate wells
[7] = human liver microsomes, 0.1 µM, NADPH-regenerating system, 37 °C, mean of two independent experiments

| Compound | CC50 [1] | EC50 (HCV 1b replicon; [6]) | EC90 (HCV 1b replicon; [6]) | Clint ([2]; human, microsomes) | T1/2 ([2]; human, microsomes) | CC50 [3] | also measured |
| --- | --- | --- | --- | --- | --- | --- | --- |
| CC(C)CCOC(=O)[C@H](COC(=O)C(C)C)NP(=O)(OC[C@H]1O[C@@H](n2ccc(=O)[nH]c2=O)[C@](C)(O)[C@@H]1O)Oc1ccccc1 (stereo partly drawn) [31h, 2′-C-Methyl-uridine-5′-[phenyl(α-isoamyl-β-O-isobutyryl-L-serine)]phosphate] | 5.28 µM | 0.02 µM | 0.13 µM | 763.70 µl/min/mg protein | 9 min | 7.51 µM |  |
| CCCCCOC(=O)[C@H](COCc1ccccc1)NP(=O)(OC[C@H]1O[C@@H](n2ccc(=O)[nH]c2=O)[C@](C)(O)[C@@H]1O)Oc1ccccc1 (stereo partly drawn) [31d, 2′-C-Methyl-uridine-5′-[phenyl(α-amyl-β-O-benzyl-L-serine)]phosphate] |  |  |  | 496.80 µl/min/mg protein | 14 min | 5.89 µM |  |
| CC(C)CCOC(=O)CC[C@H](NP(=O)(OC[C@H]1O[C@@H](n2ccc(=O)[nH]c2=O)[C@](C)(O)[C@@H]1O)Oc1ccccc1)C(=O)OCCC(C)C (stereo partly drawn) [31b, 2′-C-Methyl-uridine-5′-[phenylbis(isoamyl-L-glutamyl)]phosphate] | 9.98 µM | 0.01 µM | 0.13 µM | 844.60 µl/min/mg protein | 8 min | > 20 µM |  |
| CC(C)CCOC(=O)[C@H](COCc1ccccc1)NP(=O)(OC[C@H]1O[C@@H](n2ccc(=O)[nH]c2=O)[C@](C)(O)[C@@H]1O)Oc1ccccc1 (stereo partly drawn) [31e, 2′-C-Methyl-uridine-5′-[phenyl(α-isoamyl-β-O-benzyl-L-serine)]phosphate] | 4.59 µM | 0.01 µM | 0.08 µM |  |  | 8 µM |  |
| CC(C)OC(=O)[C@H](C)N[P@](=O)(OC[C@H]1O[C@@H](n2ccc(=O)[nH]c2=O)[C@](C)(F)[C@@H]1O)Oc1ccccc1 [Sofosbuvir, reference compound] |  |  |  |  |  |  | CC50 [4]: > 5 µM; EC50 (HCV 1b replicon; Hepatitis C virus): 0.07 µM; EC90 (HCV 1b replicon; Hepatitis C virus): 0.28 µM; CC50 (in vitro): > 5 µM; cytotoxicity (devoid up to) [5]: > 100 µM |
| COC(=O)[C@H](COCc1ccccc1)NP(=O)(OC[C@H]1O[C@@H](n2ccc(=O)[nH]c2=O)[C@](C)(O)[C@@H]1O)Oc1ccccc1 (stereo partly drawn) [31c, 2′-C-Methyl-uridine-5′-[phenyl(α-methoxy-β-O-benzyl-L-serine)]phosphate] |  |  |  |  |  | > 20 µM |  |
| COC(=O)[C@H](COC(=O)C(C)C)NP(=O)(OC[C@H]1O[C@@H](n2ccc(=O)[nH]c2=O)[C@](C)(O)[C@@H]1O)Oc1ccccc1 (stereo partly drawn) [31f, 2′-C-Methyl-uridine-5′-[phenyl(α-methoxy-β-O-isobutyryl-L-serine)]phosphate] |  |  |  |  |  | > 20 µM |  |
| COC(=O)CC[C@H](NP(=O)(OC[C@H]1O[C@@H](n2ccc(=O)[nH]c2=O)[C@](C)(O)[C@@H]1O)Oc1ccccc1)C(=O)OC (stereo partly drawn) [31a, 2′-C-Methyl-uridine-5′-[phenylbis(methoxy-L-glutamyl)]phosphate] |  |  |  |  |  | > 20 µM |  |
| CC(C)CCOC(=O)[C@H](Cc1ccc(OC(=O)C(C)C)cc1)NP(=O)(OCC1OC(n2ccc(=O)[nH]c2=O)C(C)(O)C1O)Oc1ccccc1 (stereo partly drawn) [31k, 2′-C-Methyl-uridine-5′-[phenyl(isoamyl-O-isobutyryl-L-tyrosine)]phosphate] | 18.4 µM | 0.04 µM | 0.69 µM |  |  |  | Clint [2, 7]: 679.60 µl/min/mg protein; T1/2 [2, 7]: 10 min; CC50 ([3]; concentration decreasing cell viability by 50%, 72 hrs, CytoTox-ONE): > 20 µM |
| CC(C)CCOC(=O)[C@@H](NP(=O)(OC[C@H]1O[C@@H](n2ccc(=O)[nH]c2=O)[C@](C)(O)[C@@H]1O)Oc1ccccc1)[C@@H](C)OCc1ccccc1 (stereo partly drawn) [31i, 2′-C-Methyl-uridine-5′-[phenyl(isoamyl-O-benzyl-L-threonine)]phosphate] | 7.27 µM | 0.04 µM | 0.69 µM | 699.00 µl/min/mg protein | 10 min | > 20 µM |  |
| CC(C)CCOC(=O)[C@@H](NP(=O)(OC[C@H]1O[C@@H](n2ccc(=O)[nH]c2=O)[C@](C)(O)[C@@H]1O)Oc1ccccc1)[C@@H](C)OC(=O)C(C)C (stereo partly drawn) [31j, 2′-C-Methyl-uridine-5′-[phenyl(isoamyl-O-isobutyryl-L-threonine)]phosphate] |  |  |  |  |  | 11.5 µM |  |
| CCCCCOC(=O)[C@H](COC(=O)C(C)C)NP(=O)(OC[C@H]1O[C@@H](n2ccc(=O)[nH]c2=O)[C@](C)(O)[C@@H]1O)Oc1ccccc1 (stereo partly drawn) [31g, 2′-C-Methyl-uridine-5′-[phenyl(α-amyl-β-O-isobutyryl-L-serine)]phosphate] |  |  |  |  |  | 6.79 µM |  |
| C[C@@]1(O)[C@H](O)[C@@H](CO)O[C@H]1n1ccc(=O)[nH]c1=O [2’-C-Me-uridine, reference compound] |  |  |  |  |  | > 100 µM |  |
